Reference: ChEMBL document CHEMBL1201862, “PubChem BioAssay data set” (2004)
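A five-concentration, 48-hour dose response in 96-well plates underlies each endpoint, interpolated linearly between surrounding concentrations. At the GI50, growth is halved.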 Active and inactive are the calls of the source. No stated cut-off is given here; in the data, active = GI50 up to about 1.1 µM and inactive = higher.

Assays:
Assay in all cases: NCI-60 cell line screen, 48 h
OVCAR-3 = test system: OVCAR-3
UACC-257 = test system: UACC-257
EKVX = test system: EKVX
CCRF-CEM = test system: CCRF-CEM
MDA-MB-435 = test system: MDA-MB-435
SN12C = test system: SN12C
NCI-H23 = test system: NCI-H23
SW-620 = test system: SW-620
M14 = test system: M14
OVCAR-5 = test system: OVCAR-5
PC-3 = test system: PC-3
Hs-578T = test system: Hs-578T
Malme-3M = test system: Malme-3M
UO-31 = test system: UO-31
RXF 393 = test system: RXF 393
DU-145 = test system: DU-145
OVCAR-8 = test system: OVCAR-8
K562 = test system: K562
MCF7 = test system: MCF7
RPMI-8226 = test system: RPMI-8226

Measured: GI50

N#Cc1c(N)nc2[nH]nc(N)c2c1-c1ccc(Cl)cc1
inactive: OVCAR-3 2.34 µM | UACC-257 11.9 µM | EKVX 5.21 µM | CCRF-CEM 4.95 µM | MDA-MB-435 5.85 µM | SN12C 3.32 µM | NCI-H23 3.76 µM | SW-620 13.8 µM | M14 3.33 µM | OVCAR-5 11.9 µM | PC-3 2.65 µM | Hs-578T 2.5 µM | Malme-3M 2.1 µM | UO-31 2.42 µM | RXF 393 2.11 µM | DU-145 4.8 µM | OVCAR-8 6.75 µM | K562 16.9 µM | MCF7 3.03 µM

COc1ccc(/C=C(/C#N)C(N)=O)cc1OC
inactive: OVCAR-3 > 100 µM | UACC-257 > 100 µM | EKVX > 100 µM | CCRF-CEM 42.1 µM | MDA-MB-435 > 100 µM | SN12C > 100 µM | NCI-H23 > 100 µM | RPMI-8226 > 100 µM | SW-620 > 100 µM | M14 > 100 µM | OVCAR-5 > 100 µM | PC-3 > 100 µM | Hs-578T > 100 µM | Malme-3M > 100 µM | RXF 393 > 100 µM | DU-145 > 100 µM | OVCAR-8 > 100 µM | K562 > 100 µM | MCF7 > 100 µM

Cc1ccc(-c2nc3cc([N+](=O)[O-])ccc3[nH]2)cc1
inactive: OVCAR-3 67.5 µM | UACC-257 80.4 µM | EKVX 51.6 µM | CCRF-CEM 39.6 µM | MDA-MB-435 > 100 µM | SN12C > 100 µM | NCI-H23 > 100 µM | RPMI-8226 43.1 µM | SW-620 > 100 µM | M14 > 100 µM | PC-3 38.9 µM | Hs-578T > 100 µM | Malme-3M > 100 µM | UO-31 57.8 µM | RXF 393 > 100 µM | DU-145 82.8 µM | OVCAR-8 93.1 µM | K562 59.3 µM | MCF7 > 100 µM

O=C1/C(=C/c2ccccc2)Oc2cc(O)ccc21
inactive: OVCAR-3 > 100 µM | UACC-257 > 100 µM | EKVX > 100 µM | CCRF-CEM > 100 µM | MDA-MB-435 > 100 µM | SN12C > 100 µM | NCI-H23 > 100 µM | RPMI-8226 > 100 µM | SW-620 > 100 µM | M14 > 100 µM | PC-3 > 100 µM | Hs-578T > 100 µM | UO-31 > 100 µM | RXF 393 > 100 µM | DU-145 > 100 µM | OVCAR-8 > 100 µM | K562 > 100 µM | MCF7 > 100 µM

CC(=O)N1c2ccccc2C23CCN(C)CC4C(C)OCC(C4CC2=O)C13 (configuration not stated)
inactive: UACC-257 > 100 µM | EKVX > 100 µM | CCRF-CEM > 100 µM | MDA-MB-435 > 100 µM | SN12C > 100 µM | NCI-H23 > 100 µM | SW-620 > 100 µM | M14 > 100 µM | OVCAR-5 > 100 µM | PC-3 > 100 µM | Hs-578T > 100 µM | Malme-3M > 100 µM | UO-31 > 100 µM | RXF 393 > 100 µM | DU-145 > 100 µM | OVCAR-8 > 100 µM | K562 > 100 µM | MCF7 > 100 µM

OCC12C3C4C5C3C1C5C42 (configuration not stated)
inactive: OVCAR-3 > 100 µM | UACC-257 > 100 µM | EKVX > 100 µM | CCRF-CEM > 100 µM | MDA-MB-435 > 100 µM | SN12C > 100 µM | NCI-H23 > 100 µM | SW-620 > 100 µM | M14 > 100 µM | OVCAR-5 > 100 µM | PC-3 > 100 µM | Hs-578T > 100 µM | Malme-3M > 100 µM | UO-31 > 100 µM | RXF 393 > 100 µM | DU-145 > 100 µM | OVCAR-8 > 100 µM | K562 > 100 µM | MCF7 > 100 µM
